The values below come from patent US20220096468A1 (priority 2018, published 2022).

For one assay, the system named is 293T cells. Description: Amount of intracellular T-705RTP in 293T cells by LC/MS/MS. In kind it is cell-based, human. Particulars: 293T cells cultured 24 hours with T-705 and 6-mercaptopurine; FIG. 1. The method, then:
As described above, the pyrazine derivative or a salt thereof undergoes ribosyl phosphorylation in a cell. […] In order to examine whether or not the effect of 6-mercaptopurine to reinforce the activity of T-705, which was shown in Test Example 1, is caused by a change in the amount of T-705RTP, the amount of T-705RTP in 293T cells was measured under the treatment with 6-mercaptopurine.
293T cells (5×10^5 cells) seeded in each well of a 6-well plate were cultured with a vehicle (0.3% DMSO) or with 6-mercaptopurine, T-705, or the two drugs in various concentrations, under conditions of 5% CO2 at 37° C. for 24 hours.
After completion of the culture, the reaction mixture was washed with 2 ml of PBS, and 300 μl of trypsin was then added thereto. The obtained mixture was left at rest at 37° C. for 5 minutes, and the cells were then removed. Subsequently, 400 μl of a trypsin inhibitor was added and suspended into the cells, and the cell suspension was then recovered in a 1.5-ml tube. The cell suspension was centrifuged at 1,000 rpm at 4° C. for 2 minutes (MX-301, TOMY), and 500 μl of a supernatant was then removed. […]
The measurement of the number of cells and an LC/MS/MS analysis were carried out, and the amount of T-705RTP in each sample was then measured. […]

In assay [1] the target is RdRp of the influenza virus (replicon activity) (Influenza A virus, UniProt P03431). Description: Influenza virus RdRp replicon reporter (Luc) assay in transduced 293T cells. In kind it is cell-based, Influenza A/PR/8/34 (H1N1). Conditions: for inhibition at 10 µM: read-out: Replicon inhibiting percentage; for IC50: read-out: T-705 50% inhibitory concentration. For orientation: Replicon systems follow genome replication, usually without infectious particles.

Assay [2] concerns influenza virus (PR/8(H1N1)). The experiment in a line: microbe, parasite or virus in culture. The class given is cell-based. Particulars: for IC50: unidentified influenza virus, MDCK, MDCK cells.
Assay [3] deals with influenza virus (PR/8(H1N1)). In kind it is cell-based.
The next assay concerns Punta Toro virus. In kind it is cell-based.
Setting [4] is: HEK-293T, T-705 10 μM, antimetabolite 0.08 μM.
Setting [5] is: HEK-293T, T-705 10 μM, antimetabolite 0.4 μM.
Setting [6] is: HEK-293T, T-705 10 μM, antimetabolite 2.0 μM.
The mark [7] stands for this setting: HEK-293T, T-705 10 μM, antimetabolite 10.0 μM.
Setting [8] is: T-705 0 μM, antimetabolite 0.08 μM.
Where [9] appears, read: T-705 0 μM, antimetabolite 0.4 μM.
Setting [10] is: T-705 0 μM, antimetabolite 2.0 μM.
Where [11] appears, read: T-705 0 μM, antimetabolite 10.0 μM.
Where [12] appears, read: HEK-293T, single agent, without T-705, read-out: replicon inhibiting percentage.

“And” between values parts separate entries of the source, which are not always exact repeats. Identical values can stand only once. Like-named read-outs stand apart in the source and are kept apart here. Marks after values point to notes of the source that are not given here.

In the case of `Sc1ncnc2nc[nH]c12` [6-Mercaptopurine, 6-mercaptopurine], the “amount of T-705RTP in the cells after the treatment of T-705” value in the assay on 293T cells is given as “increased”. Also, the inhibition at 10 µM in assay [1] (setting [4]) is 1.8%; in assay [1] (setting [5]) it was 3.7%; in assay [1] (setting [6]), 17%; in assay [1] (setting [7]), 38%. Besides, the inhibition at 200 µM in assay [1] (HEK-293T, single agent, <200 μM, without T-705, read-out: replicon inhibiting percentage) was < 50%. Also, the Replicon inhibiting percentage is recorded as −1.1% in assay [1] (setting [8]), 1.5% in assay [1] (setting [9]), 2.7% in assay [1] (setting [10]) and 8.2% in assay [1] (setting [11]). Besides, the CPE inhibitory effects entry in assay [2] (single agent, 10 μM) was “did not exhibit CPE inhibitory effects”.

For `Cn1cnc([N+](=O)[O-])c1Sc1ncnc2nc[nH]c12` [Azathioprine, azathioprine], the inhibition at 10 µM in assay [1] (setting [4]) was determined as 3.3%; in assay [1] (setting [5]), 1.3%; in assay [1] (setting [6]) it was 5.9%; in assay [1] (setting [7]), 26%. For the same molecule, the Replicon inhibiting percentage in assay [1] (setting [8]) was 3.1%; in assay [1] (setting [9]), −6.1%; in assay [1] (setting [10]) it was 3.4%; in assay [1] (setting [11]), 5.8%.

As for `CN(Cc1cnc2nc(N)nc(N)c2n1)c1ccc(C(=O)N[C@@H](CCC(=O)O)C(=O)O)cc1` [Methotrexate, methotrexate], the inhibition at 10 µM in assay [1] (setting [4]) came to 11%; in assay [1] (setting [5]), 36%; in assay [1] (setting [6]) it was 34%; in assay [1] (setting [7]) it was 37%. Besides, in assay [1] (setting [12]), the inhibition at 20 µM is < 50%. For the same molecule, the Replicon inhibiting percentage in assay [1] (setting [8]) was determined as 1.3%; in assay [1] (setting [9]), 18%; in assay [1] (setting [10]), 20%; in assay [1] (setting [11]) it was 19%.

For `C#CCC(Cc1cnc2nc(N)nc(N)c2n1)c1ccc(C(=O)N[C@@H](CCC(=O)O)C(=O)O)cc1` (some centres unmarked) [Pralatrexate, pralatrexate], the inhibition at 10 µM in assay [1] (setting [4]) came to 33%; in assay [1] (setting [5]) it was 33%; in assay [1] (setting [6]), 33%; in assay [1] (setting [7]) it was 35%. The inhibition at 20 µM in assay [1] (setting [12]) was < 50%. For the same molecule, the Replicon inhibiting percentage in assay [1] (setting [8]) is given as 24%; in assay [1] (setting [9]) it was 23%; in assay [1] (setting [10]), 2%; in assay [1] (setting [11]), 23%.

Turning to `NC(=O)c1ncn([C@@H]2O[C@H](CO)[C@@H](O)[C@H]2O)n1` [Ribavirin], the “minimum drug concentration which exhibits complete CPE suppression effect” value in assay [3] (used alone) is 30 µM.

Turning to `NC(=O)c1nc(F)cnc1O` [T-705, 6-Fluoro-3-hydroxy-2-pyrazinecarboxamide], the “minimum drug concentration which exhibits complete CPE suppression effect” value in assay [3] (6-mercaptopurine (10 μM) added) came out at 0.3 µM; in assay [3] (6-mercaptopurine (10 μM) and Ribavirin (3 μM) added), 0.1 µM; in assay [3] (used alone), 3 µM. Besides, the “LogTCID50 value that shows the effect of reducing the virus amount with respect to the infection control” value with Punta Toro virus was 1.0*. Besides, the IC50 came out at 310 µM in assay [1] (6-Mercaptopurine concentration 0 μM); 303 µM in assay [1] (6-Mercaptopurine concentration 0.03 μM); 275 µM in assay [1] (6-Mercaptopurine concentration 0.09 μM); 219 µM in assay [1] (6-Mercaptopurine concentration 0.27 μM); 163 µM in assay [1] (6-Mercaptopurine concentration 0.82 μM); 67 µM in assay [1] (6-Mercaptopurine concentration 2.5 μM). Further, the IC50 in assay [1] (6-Mercaptopurine concentration 7.4 μM) was found to be 16 µM; in assay [1] (6-Mercaptopurine concentration 22 μM) it was 2.3 µM; in assay [1] (6-Mercaptopurine concentration 67 μM) it was 5.1 µM; in assay [1] (6-Mercaptopurine concentration 200 μM), 23 µM; in assay [1] (Methotrexate concentration 0 μM) it was 314 µM; in assay [1] (Methotrexate concentration 0.08 μM), 46 µM. In addition, the IC50 in assay [1] (Methotrexate concentration 0.16 μM) turned out to be 43 µM; in assay [1] (Methotrexate concentration 0.31 μM) it was 41 µM; in assay [1] (Methotrexate concentration 0.63 μM), 47 µM; in assay [1] (Methotrexate concentration 1.25 μM) it was 40 µM; in assay [1] (Methotrexate concentration 2.5 μM), 38 µM; in assay [1] (Methotrexate concentration 5 μM), 39 µM. In addition, the IC50 was 28 µM in assay [1] (Methotrexate concentration 10 μM); 30 µM in assay [1] (Methotrexate concentration 20 μM); 304 µM in assay [1] (Pralatrexate concentration 0 μM); 32 µM in assay [1] (Pralatrexate concentration 0.08 μM); 31 µM in assay [1] (Pralatrexate concentration 0.16 μM); 25 µM in assay [1] (Pralatrexate concentration 0.31 μM). The IC50 in assay [1] (Pralatrexate concentration 0.63 μM) worked out at 29 µM; in assay [1] (Pralatrexate concentration 1.25 μM), 18 µM; in assay [1] (Pralatrexate concentration 2.5 μM) it was 24 µM; in assay [1] (Pralatrexate concentration 5 μM), 25 µM; in assay [1] (Pralatrexate concentration 10 μM), 22 µM; in assay [1] (Pralatrexate concentration 20 μM), 23 µM. Moreover, the IC50 is 1.97 µM in assay [2] (read-out: T-705 50% concentration (50% inhibitory concentration of T-705), 6-Mercaptopurine concentration 0 μM); 1.83 µM in assay [2] (read-out: T-705 50% concentration (50% inhibitory concentration of T-705), 6-Mercaptopurine concentration 0.1 μM); 1.32 µM in assay [2] (read-out: T-705 50% concentration (50% inhibitory concentration of T-705), 6-Mercaptopurine concentration 0.3 μM); 0.77 µM in assay [2] (read-out: T-705 50% concentration (50% inhibitory concentration of T-705), 6-Mercaptopurine concentration 1 μM); 0.7 µM in assay [2] (read-out: T-705 50% concentration (50% inhibitory concentration of T-705), 6-Mercaptopurine concentration 3 μM); 0.38 µM in assay [2] (read-out: T-705 50% concentration (50% inhibitory concentration of T-705), 6-Mercaptopurine concentration 10 μM). The Replicon inhibiting percentage in assay [1] (T-705 10 μM, antimetabolite 0 μM (T-705 alone)) was 0.58% and 2.2% and −1.8% and −2.3% and −7.8%.

On to `NC(=O)c1nccnc1O` [T-1105, 3-hydroxy-pyrazinecarboxamide], for which the “LogTCID50 value that shows the effect of reducing the virus amount with respect to the infection control” value in the assay with Punta Toro virus came to 0.0.

As for `Cn1c(=O)c2[nH]cnc2n(C)c1=O` [Theophylline, theophylline], in the assay on Punta Toro virus, the “LogTCID50 value that shows the effect of reducing the virus amount with respect to the infection control” value is “excellent effect of reducing the virus amount”.

As for `Nc1nc2nc[nH]c2c(=S)[nH]1` [Thioguanine], the inhibition at 10 µM is -1.2% in assay [1] (setting [4]), 14% in assay [1] (setting [6]) and 23% in assay [1] (setting [7]). Moreover, the Replicon inhibiting percentage in assay [1] (setting [8]) is listed as −4.8%; in assay [1] (setting [9]), −5.4%; in assay [1] (setting [10]), −3.7%; in assay [1] (setting [11]) it was 12%.

With `NC(=O)c1csc([C@@H]2O[C@H](CO)[C@@H](O)[C@H]2O)n1` [Tiazofurin, tiazofurin], in the assay with Punta Toro virus, the “LogTCID50 value that shows the effect of reducing the virus amount with respect to the infection control” value is “excellent effect of reducing the virus amount”.
